32 compounds from patent publication US11098032B2, “Pyran dervatives as CYP11A1 (cytochrome P450 monooxygenase 11A1) inhibitors” (ORION CORPORATION, priority 2016, dated 2021) can be followed below.

Where a name gives a salt, the structure may show the parent alone. A value given as a limit tells only on which side of the number the result lay.

This assay concerns the target T1, CYP11A1 (Homo sapiens, UniProt P05108).
T1 construct: human H295R adrenocortical carcinoma cell line was used as source of enzyme; endogenous in cells; host or cells: H295R human adrenocortical carcinoma cells
T1 sequence (P05108 40-521): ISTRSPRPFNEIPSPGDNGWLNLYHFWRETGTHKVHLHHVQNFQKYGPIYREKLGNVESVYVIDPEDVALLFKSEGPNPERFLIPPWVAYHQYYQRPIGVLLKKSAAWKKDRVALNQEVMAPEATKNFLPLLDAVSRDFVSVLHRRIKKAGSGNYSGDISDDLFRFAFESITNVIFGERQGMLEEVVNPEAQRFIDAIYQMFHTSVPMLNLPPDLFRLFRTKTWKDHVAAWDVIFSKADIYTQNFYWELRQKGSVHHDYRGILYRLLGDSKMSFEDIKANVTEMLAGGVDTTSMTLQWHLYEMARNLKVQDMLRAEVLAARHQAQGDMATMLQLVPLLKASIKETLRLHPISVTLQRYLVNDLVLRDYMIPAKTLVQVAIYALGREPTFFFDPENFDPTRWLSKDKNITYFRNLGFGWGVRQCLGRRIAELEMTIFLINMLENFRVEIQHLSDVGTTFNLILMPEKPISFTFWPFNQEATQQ
Nature of the assay: CYP11A1 inhibition: modified isocaproic acid release assay (IARA) in H295R cells. Format: cell-based. The settings on record: human H295R adrenocortical carcinoma cells treated three days, 3 nM [24,25-3H]-labelled cholesterol, 1% DMSO, 10 concentrations in duplicates; read-out: IC50 of the test compounds on CYP11A1 inhibition. The essentials: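 Cholesterol side-chain cleavage followed as tritiated isocaproic acid in charcoal-extracted medium, counted by scintillation. Substrate was 3 nM [24,25-3H]-cholesterol on human H295R cells exposed for three days to ten compound concentrations (duplicates, 1% DMSO); IC50 derived.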
The IC50 is the midpoint of a concentration-inhibition curve. As to `CS(=N)c1ccc(COc2coc(CN3Cc4ccc(C(F)(F)F)cc4C3)cc2=O)cc1` (centres unmarked) [Compound 74, 5-((4-(S-methylsulfinimidoyl)benzyl)oxy)-2-((5-(trifluoromethyl)isoindolin-2-yl)methyl)-4H-pyran-4-one], the half-inhibitory concentration (IC50) was < 150 nM.
Consider `O=c1cc(CN2Cc3ccccc3C2)occ1OCC1CCN(S(=O)(=O)C2COC2)CC1` [Compound 36, 2-(Isoindolin-2-ylmethyl)-5-((1-(oxetan-3-ylsulfonyl)piperidin-4-yl)methoxy)-4H-pyran-4-one], for which the IC50 was < 150 nM.
In the case of `CN(C)S(=O)(=O)c1ccc(COc2coc(CN3Cc4ccccc4C3)cc2=O)cc1` [Compound 10, 4-(((6-(Isoindolin-2-ylmethyl)-4-oxo-4H-pyran-3-yl)oxy)methyl)-N,N-di-methylbenzenesulfonamide] it was < 150 nM.
The figure for `O=c1cc(CN2Cc3ccccc3C2)occ1OCc1ccc(CO)cc1` [Compound 123, 5-((4-(Hydroxymethyl)benzyl)oxy)-2-(isoindolin-2-ylmethyl)-4H-pyran-4-one] is 301 to 2000 nM; for `CC(=O)N(C)S(=O)(=O)c1ccc(COc2coc(CN3Cc4ccccc4C3)cc2=O)cc1` [Compound 70, N-((4-(((6-(Isoindolin-2-ylmethyl)-4-oxo-4H-pyran-3-yl)oxy)methyl)phenyl)-sulfonyl)-N-methylacetamide] it is < 150 nM.
In the case of `O=C(c1ccc(COc2coc(CN3Cc4ccc(Cl)cc4C3)cc2=O)cc1)N1CC(F)(F)C1` [Compound 163, 2-((5-Chloroisoindolin-2-yl)methyl)-5-((4-(3,3-difluoroazetidine-1-carbonyl)-benzyl)oxy)-4H-pyran-4-one] it was 150 to 300 nM; in that of `CC(C)S(=O)(=O)N1CCC(COc2coc(CN3Cc4ccccc4C3)cc2=O)CC1` [Compound 270, 2-(Isoindolin-2-ylmethyl)-5-((1-(isopropylsulfonyl)piperidin-4-yl)methoxy)-4H-pyran-4-one], 150 to 300 nM; in that of `O=C(NCCCCO)c1ccc(COc2coc(CN3Cc4ccccc4C3)cc2=O)cc1` [Compound 145, N-(4-Hydroxybutyl)-4-(((6-(isoindolin-2-ylmethyl)-4-oxo-4H-pyran-3-yl)oxy)-methyl)benzamide], 301 to 2000 nM.
On to `O=c1cc(CN2Cc3ccccc3C2)occ1OC[C@H]1C=C[C@@H](NS(=O)(=O)C2CC2)C1` (relative stereo) [Compound 274, Cis-N-(4-(((6-(isoindolin-2-ylmethyl)-4-oxo-4H-pyran-3-yl)oxy)methyl)cyclo-pent-2-en-1-yl)cyclopropanesulfonamide, Formate], for which the half-inhibitory concentration (IC50) is 301 to 2000 nM.
In the case of `O=C(c1ccc(COc2coc(CN3Cc4ccc(F)cc4C3)cc2=O)cc1)N1CCC1` [Compound 150, 5-((4-(Azetidine-1-carbonyl)benzyl)oxy)-2-((5-fluoroisoindolin-2-yl)methyl)-4H-pyran-4-one] it was 301 to 2000 nM.
In the case of `O=c1cc(CN2Cc3ccccc3C2)occ1OCc1ccc(S(=O)(=O)C2CC2)cc1` [Compound 72, 5-((4-(Cyclopropylsulfonyl)benzyl)oxy)-2-(isoindolin-2-ylmethyl)-4H-pyran-4-one] it was < 150 nM; in that of `Cc1ccc(S(=O)(=O)N2CCN(C(=O)COc3coc(CN4Cc5ccccc5C4)cc3=O)CC2)cc1` [Compound 157, 2-(Isoindolin-2-ylmethyl)-5-(2-oxo-2-(4-tosylpiperazin-1-yl)ethoxy)-4H-pyran-4-one], 301 to 2000 nM; in that of `CS(=O)(=O)c1ccc(COc2coc(CN3Cc4cccc(Cl)c4C3)cc2=O)cc1` [Compound 281, 2-((4-Chloroisoindolin-2-yl)methyl)-5-((4-(methylsulfonyl)benzyl)oxy)-4H-pyran-4-one], 301 to 2000 nM.
In the case of `CS(=O)(=O)N1CCC(COc2coc(C[N+]3([O-])Cc4ccccc4C3)cc2=O)CC1` [Compound 289, 2-((5-((1-(Methylsulfonyl)piperidin-4-yl)methoxy)-4-oxo-4H-pyran-2-yl)-methyl)isoindoline 2-oxide] it was 301 to 2000 nM; in that of `O=C(COc1coc(CN2Cc3ccccc3C2)cc1=O)N1CCN(c2ccc(Cl)cc2)CC1` [Compound 154, 5-(2-(4-(4-Chlorophenyl)piperazin-1-yl)-2-oxoethoxy)-2-(isoindolin-2-ylmethyl)-4H-pyran-4-one], 301 to 2000 nM; in that of `COC(=O)[C@H]1CC[C@H](COc2coc(CN3Cc4ccccc4C3)cc2=O)CC1` [Compound 178, Methyl (1r,4r)-4-(((6-(isoindolin-2-ylmethyl)-4-oxo-4H-pyran-3-yl)oxy)methyl)-cyclohexane-1-carboxylate], 301 to 2000 nM.
On to `CCOC(=O)C(=O)N1CCC(COc2coc(CN3Cc4ccccc4C3)cc2=O)CC1` [Compound 269, Ethyl 2-(4-(((6-(isoindolin-2-ylmethyl)-4-oxo-4H-pyran-3-yl)oxy)methyl)-piperidin-1-yl)-2-oxoacetate], for which the IC50 is 150 to 300 nM.
The figure for `CS(=O)(=O)NCc1ccc(COc2coc(CN3Cc4ccccc4C3)cc2=O)cc1` [Compound 113, N-(4-(((6-(Isoindolin-2-ylmethyl)-4-oxo-4H-pyran-3-yl)oxy)methyl)benzyl)-methanesulfonamide] is < 150 nM; for `CCS(=O)(=O)N1CCC(COc2coc(CN3Cc4ccc(F)cc4C3)cc2=O)CC1` [Compound 189, 5-((1-(Ethylsulfonyl)piperidin-4-yl)methoxy)-2-((5-fluoroisoindolin-2-yl)methyl)-4H-pyran-4-one] it is < 150 nM.
The figure for `O=C(N1CCC1)N1CCC(COc2coc(CN3Cc4ccccc4C3)cc2=O)CC1` [Compound 231, 5-((1-(Azetidine-1-carbonyl)piperidin-4-yl)methoxy)-2-(isoindolin-2-ylmethyl)-4H-pyran-4-one] is 150 to 300 nM; for `O=c1cc(CN2Cc3ccccc3C2)occ1OCc1ccc(S(=O)(=O)N2CCCC2)cc1` [Compound 5, 2-(Isoindolin-2-ylmethyl)-5-((4-(pyrrolidin-1-ylsulfonyl)benzyl)oxy)-4H-pyran-4-one] it is < 150 nM; for `CS(=O)(=O)c1ccc(COc2coc(CN3Cc4ccccc4C3)cc2=O)c(F)c1` [Compound 34, 5-((2-Fluoro-4-(methylsulfonyl)benzyl)oxy)-2-(isoindolin-2-ylmethyl)-4H-pyran-4-one] it is 150 to 300 nM.
The figure for `COCCN(C)S(=O)(=O)c1ccc(COc2coc(CN3Cc4ccccc4C3)cc2=O)cc1` [Compound 20, 4-(((6-(Isoindolin-2-ylmethyl)-4-oxo-4H-pyran-3-yl)oxy)methyl)-N-(2-methoxyethyl)-N-methylbenzenesulfonamide] is 150 to 300 nM; for `CCN(CC)C(=O)c1ccc(COc2coc(CN3Cc4ccccc4C3)cc2=O)cc1` [Compound 126, N,N-Diethyl-4-(((6-(isoindolin-2-ylmethyl)-4-oxo-4H-pyran-3-yl)oxy)methyl)-benzamide] it is 150 to 300 nM.
Regarding `CN(C)C(=O)c1ccc(COc2coc(CN3Cc4ccc(F)cc4C3)cc2=O)cc1` [Compound 127, 4-(((6-((5-Fluoroisoindolin-2-yl)methyl)-4-oxo-4H-pyran-3-yl)oxy)methyl)-N,N-dimethylbenzamide], the half-maximal inhibitory concentration (IC50) lay in the range of 150 to 300 nM.
In the case of `CN(C)C(=O)c1ccc(COc2coc(CN3Cc4cccc(F)c4C3)cc2=O)cc1` [Compound 32, 4-(((6-((4-Fluoroisoindolin-2-yl)methyl)-4-oxo-4H-pyran-3-yl)oxy)methyl)-N,N-dimethylbenzamide] it was 301 to 2000 nM; in that of `CC(C)C(=O)N1CCC(COc2coc(CN3Cc4ccccc4C3)cc2=O)CC1` [Compound 272, 5-((1-Isobutyrylpiperidin-4-yl)methoxy)-2-(isoindolin-2-ylmethyl)-4H-pyran-4-one], < 150 nM.
The figure for `CS(C)(=O)=NC(=O)c1ccc(COc2coc(CN3Cc4ccc(F)cc4C3)cc2=O)cc1` [Compound 84, N-[Dimethyl(oxido)-λ^6-sulfanylidene]-4-[({6-[(5-fluoro-1,3-dihydro-2H-iso-indol-2-yl)methyl]-4-oxo-4H-pyran-3-yl}oxy)methyl]benzamide] is < 150 nM.
In the case of `CN(C)C(=O)c1ccc(COc2coc(CN3Cc4ccccc4C3)cc2=O)nc1` [Compound 170, 6-(((6-(Isoindolin-2-ylmethyl)-4-oxo-4H-pyran-3-yl)oxy)methyl)-N,N-dimethyl-nicotinamide] it was 301 to 2000 nM; in that of `O=c1cc(CN2Cc3ccccc3C2)occ1OCc1ccc(-c2ncco2)cc1` [Compound 109, 2-(Isoindolin-2-ylmethyl)-5-((4-(oxazol-2-yl)benzyl)oxy)-4H-pyran-4-one], < 150 nM.
As for `CS(=O)(=O)N1CCC(COc2coc(CN3Cc4ccccc4C3)cc2=O)C(O)C1` (centres unmarked) [Compound 193, 5-((3-Hydroxy-1-(methylsulfonyl)piperidin-4-yl)methoxy)-2-(isoindolin-2-yl-methyl)-4H-pyran-4-one], the IC50 fell in the range of 301 to 2000 nM.
The figure for `COCCNS(=O)(=O)c1ccc(COc2coc(CN3Cc4ccccc4C3)cc2=O)cc1` [Compound 11, 4-(((6-(Isoindolin-2-ylmethyl)-4-oxo-4H-pyran-3-yl)oxy)methyl)-N-(2-methoxyethyl)benzenesulfonamide] is < 150 nM.
